Source: patent US8729047B2, “Compositions for inhibiting redox-sensitive GTPases” (Board of Regents, The University of Texas System, priority 2010, dated 2014)
Read-outs that look alike come from different tables or passages of the source. One block for each compound: values may come before it.

Legend:
MLC = MLC phosphorylation in A7r5 cells; assay type: cell-based, rat
Experimental: (§1) FIG. 20. Determination of RhoA activity and MLC phosphorylation. […] Cell lysates in a buffer containing 1% NP-40, 10 mM EDTA, and 20 mM TrisHCl (pH 7.4) were centrifuged (50,000×g, 20 min) to remove solid matter. (A) The soluble cell extract was then used to perform Western blot analyses for RhoA and the MLC. This cell extract also was used for the co-IP-based ESI-MS analysis (FIG. 6). (B) A RhoA activity assay was colorimetrically determined using cell extract; the assay was performed with the RhoA G-LISA Activation Assay Kit (Cat. No. BK124) (Denver, Colo.). To examine the level of phosphorylation of the MLC, cells were cultured with ˜5 μCi of ^32P in 1 mL of phosphate-free DMEM. The collected cell extract was nutated with resin coupled with a macrophage myosin II antibody at 4° C. for 5 h. Resin was collected by centrifugation, and proteins bound to the resin were washed and eluted with a buffer (80° C.) containing […], 5 mM DTT, and 10 mM TrisHCl (pH 6.8). The immunoprecipitates were then analyzed by SDS-PAGE and autoradiographed. The values of RhoA activity and the MLC phosphorylation determined from untreated cells were set at 100%. […] The data represented in the figure represent the mean values of triplicate measurements, and the vertical error bar indicates standard errors.

RhoA = target: T1, RhoA (Rattus norvegicus, UniProt P61589); test: RhoA expression (Western) and RhoA G-LISA activity in A7r5 cells; assay type: cell-based
T1 construct: endogenous in cells; host or cells: A7r5 cells (rat aortic vascular smooth muscle)
T1 sequence (P61589 whole entry): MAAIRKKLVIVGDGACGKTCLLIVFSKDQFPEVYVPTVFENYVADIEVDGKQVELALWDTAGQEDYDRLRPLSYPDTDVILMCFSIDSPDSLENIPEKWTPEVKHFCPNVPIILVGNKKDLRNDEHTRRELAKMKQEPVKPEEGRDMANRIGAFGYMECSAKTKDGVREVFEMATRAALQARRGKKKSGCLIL
Experimental: as §1

RhoC = RhoC (Homo sapiens, UniProt P08134); test: Guanine nucleotide exchange of [3H]GDP-loaded GTPase with 6-TGDP (FIG. 13A); assay type: binding; parameters: made in house; host or cells: E. coli
Chain of RhoC (P08134 whole entry): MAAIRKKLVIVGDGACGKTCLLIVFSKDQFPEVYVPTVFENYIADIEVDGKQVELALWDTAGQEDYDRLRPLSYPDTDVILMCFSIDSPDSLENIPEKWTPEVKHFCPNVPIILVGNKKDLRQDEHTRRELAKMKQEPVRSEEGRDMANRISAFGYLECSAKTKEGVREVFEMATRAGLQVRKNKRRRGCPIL
Experimental: (§2) FIG. 13. Guanine nucleotide exchange of small GTPases with 6-TGDP. (A) To monitor 6-TGDP-mediated GTPase GDP dissociation, [^3H]GDP-loaded GTPase (1 μM) was incubated with 6-TGDP (0-2000 μM) for 1 h. (B) To monitor GTPase 6-TGDP dissociation by GDP (0-2000 μM) in the presence and absence of dithiothreitol (DTT), 6-TGDP-loaded GTPase (˜1 μM) was treated with .NO2 (˜3 μM) under anaerobic conditions and was incubated with various concentrations of [^3H]GDP (0-2000 μM) in the presence and absence of DTT (10 mM) for 1 h. For all assays, aliquots were withdrawn and spotted onto nitrocellulose filters. The filters were then washed three times with an assay buffer, and radioactivity was determined using a Beckman-Coulter scintillation counter. The resultant radioactivity (dpm) values associated with GTPase-bound [^3H]GDP were converted into the fraction of mol nucleotide per mol total GTPase. The data presented represent mean and standard error values from triplicate measurements. The apparent dissociation constants (appKD values) of GTPase 6-TGDP association ([^3H]GDP dissociation, A); and 6-TGDP dissociation ([3H]GDP association, B) were obtained by fitting the data to a simple dissociation and association, respectively. (A) The ^appKD values of Ras, RhoC, RhoA and Rac1 for 6-TGDP, are, respectively, 2300, 230, 224, and 245 μM [6-TGDP]. (B) The appKD values of RhoC with and without DTT are, respectively, 560, and 1000 μM [[^3H]GDP], whereas the ^appKD values of Ras with and without DTT are 530, and 520 μM [[^3H]GDP], respectively. The standard errors of each ^appKD value are less than 10% of their given values, and regression values associated with the fit were r^2>0.9560.
A kinetic assay method using radiolabeled GDP ([^3H]GDP) was established. The apparent dissociation constants (^appKD 6-TGDP) of Rho GTPases (including RhoA, Cdc42, and Rac1/2/3) and Ras with 6-TGDP were determined (FIG. 13). The results of this preliminary kinetic study provided strong support for the mechanism proposed for the role of 6-TGNP in RhoC inactivation (FIG. 7).
The true dissociation constant (^trueKD 6-TGDP) of Ras, RhoC, RhoA and Rac1 for 6-TGDP was then calculated to be ˜20.7 pM, 212 μM, 208 μM, and 158 μM [6-TGDP] by using a compensation equation, ^trueKD 6-TGDP=^appKD 6-TGDP/(1+[GDP]/^trueKD GDP) (95), in conjunction with the values given [(^appKD 6-TGDP of Ras, RhoC, RhoA, and Rac1=2300, 230, 224, and 245 μM (FIG. 13) and ^trueKD GDP=9 pM, 12 μM, 13 μM and 1.8 μM, respectively. The ^trueKD GDP of Ras, RhoA and Rac1 was determined previously (Lenzen et al. Biochemistry 37, 7420-7430 (1998); Heo et al. Biochemistry 44, 6573-6585 (2005)) and the ^trueKD GDP of RhoC was further determined. Example: ^trueKD 6-TGDP for Ras=2300 μM/(1+1 μM GDP/[…])=[…] [6-TGDP]].

Rac1 = Rac1 (Homo sapiens, UniProt P63000); parameters: made in house; host or cells: E. coli; settings: determined previously; read-out: trueKD GDP; cited from earlier work
Ras = Ras (Homo sapiens, UniProt P01112); test: [3H]GDP displacement of 6-TGDP from .NO2-treated 6-TGDP-loaded GTPase with/without DTT (FIG. 13B); assay type: binding
Chain of Ras (P01112 whole entry): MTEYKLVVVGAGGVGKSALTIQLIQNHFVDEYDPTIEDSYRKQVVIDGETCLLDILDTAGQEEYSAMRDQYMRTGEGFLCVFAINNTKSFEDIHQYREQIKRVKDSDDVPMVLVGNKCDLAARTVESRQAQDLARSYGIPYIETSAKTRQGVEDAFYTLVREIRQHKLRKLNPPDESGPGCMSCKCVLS
Experimental: as §2
The ^appKD [3H]GDP was converted into ^trueKD [3H]GDP by using a compensation equation, ^trueKD [3H]GDP=^appKD [3H]GDP/(1+[6-TGDP]/^trueKD GDP) (Segel, I. H. (1993) Enzyme kinetics, A Wiley-Interscience publication, New York) (see above)). The calculated ^trueKD [3H]GDP values of RhoC in the presence and absence of DTT were estimated to be 516 μM and 923 μM, respectively. […] Treatment with DTT, a reducing agent, disrupts the disulfide bond between RhoC and 6-TGDP, liberating 6-TGDP from RhoC, and thereby permitting [^3H]GDP to bind to RhoC.

[1] = 6-TG plus DETA/NO 10 μM, FIG. 20B

cellular expression levels of RhoA and of the MLC (RhoA; presence or absence of 6-TG, FIG. 20A): not changed
Structure (SMILES): Nc1nc2nc[nH]c2c(=S)[nH]1 [6-TG, 6-thioguanine]
dephosphorylated form of the MLC (MLC; [1]): synergistically increases | MLC dephosphorylation (MLC; 6-TG, after 3 days, FIG. 20B): large portion of the MLC in A7r5 cells was observed to have been dephosphorylated | RhoA inactivation (RhoA; 6-TG 1 μM, within 3 days, FIG. 20B): significant portion of RhoA was inactivated | fraction of inactive RhoA (RhoA; [1]): synergistically increases the fraction of inactive RhoA

Kd (RhoC; [3H]GDP-loaded GTPase 1 μM, 6-TGDP 0-2000 μM, 1 h, FIG. 13A, read-out: appKD for 6-TGDP): 230 µM | Kd (RhoC; calculated by compensation equation from appKD 6-TGDP and trueKD GDP, read-out: trueKD 6-TGDP): 212 µM
Structure (SMILES): Nc1nc2c(ncn2[C@@H]2O[C@H](COP(=O)(O)OP(=O)(O)O)[C@@H](O)[C@H]2O)c(=S)[nH]1 [6-TGDP, 6-thioguanosine diphosphate]

screen of 6-TP isomers on RhoA activity (RhoA; not shown): most effectively inhibits RhoA activity
Structure (SMILES): Nc1nc2[nH]c(S)nc2c(=O)[nH]1 [8-TG, 2-amino-8-mercapto-1H-purin-6(9H)-one]
screen of 6-TP isomers on MLC phosphorylation (MLC; not shown): dephosphorylates the MLC

Structure (SMILES): Nc1nc2c(ncn2[C@@H]2O[C@H](COP(=O)(O)OP(=O)(O)O)[C@@H](O)[C@H]2O)c(=O)[nH]1 [GDP]
Kd (RhoC; further determined (Example 2), read-out: trueKD GDP): 12 µM | Kd (Rac1): 1.8 µM | Kd (Ras; absence of DTT, calculated by compensation equation, read-out: trueKD [3H]GDP): 0.0048 µM | Kd (Ras; presence of DTT, calculated by compensation equation, read-out: trueKD [3H]GDP): 0.0047 µM | Kd (Ras; with DTT 10 mM, 6-TGDP-loaded GTPase ~1 μM treated with .NO2 ~3 μM, anaerobic, 1 h, read-out: appKD for [3H]GDP (6-TGDP dissociation)): 530 µM | Kd (Ras; without DTT, 6-TGDP-loaded GTPase ~1 μM treated with .NO2 ~3 μM, anaerobic, 1 h, read-out: appKD for [3H]GDP (6-TGDP dissociation)): 520 µM
